According to US20100022559A1, “BISOXIMES AS FUNGICIDES” (BAYER CROPSCIENCE AG, priority 2006, published 2010):
Read-outs that look alike come from different tables or passages of the source. One block for each compound: values may come before it.

Assay: logP determination by HPLC on a reversed-phase column (C 18), EEC Directive 79/831 Annex V.A8
Format: physicochemical
Conditions: for chromatographic logP: reversed-phase HPLC column (C 18)
Experimental: The stated logP values were determined in accordance with EEC Directive 79/831 Annex V.A8 by HPLC (high performance liquid chromatography) on a reversed-phase column (C 18). Temperature: 43° C.

[1] = method marker [a] (footnote not shown), isomer A / isomer B / isomer mixture as noted in the cell
[2] = method marker [b], isomer A / isomer B / isomer mixture as noted in the cell

logP (method marked [b] in Table 1): 5.75^[b]
SMILES: CC(=NOCC(C)CON=C(C)c1cccc(C(=O)c2ccccc2)n1)c1cccc(C)n1 (stereo not drawn) [Compound 690]

logP (value marked [a]): 2.46^[a]
SMILES: CC(=NOC(=O)NCCCC(C)CNC(=O)ON=C(C)c1cccc(C)n1)c1cccc(C)n1 (stereo not drawn) [compound 863]

logP (value marked [b]): 1.74^[b] (isomer A)
SMILES: C=C(CON=C(C)c1ccnc(C)c1)CON=C(C)c1cccc(C)n1 (single isomer, unassigned) [compound 533]

logP (value marked [b]): 6.87^[b]
SMILES: CC(=NOCC(C)(C)CON=C(C)c1cccc(C(C)C)n1)c1cccc(C)n1 [Compound 491]

logP [2]: 4.82^[b]
SMILES: C=C(CON=C(C)c1cccc(C)n1)CON=C(C)c1cccc(OC)n1 [compound 207]

logP (value marked [b]): 6.51^[b]
SMILES: CC(=NOCC(C)CON=C(C)c1cccc(CC(C)C)n1)c1cccc(C)n1 (stereo not drawn) [Compound 423]

logP [2]: 4.47^[b]
SMILES: CC(=NOCCCCCCON=C(C)c1cccc(C)n1)c1cccc(C)n1 [Compound 73]

logP [1]: 1.22^[a]
SMILES: CC(=NOCC(C)CON=C(C)c1cccnc1C)c1cccnc1C (mixture of isomers) [compound 234]

logP (value marked [b]): 5.54^[b]
SMILES: CC(=NOCCCCON=C(C)c1cccc(C)n1)c1cccc(Cl)c1 [compound 442]

logP (value marked [b]): 4.10^[b]
SMILES: C=CCCC(=NOCC(C)CON=C(C)c1cccc(C)n1)c1ncccc1C (stereo not drawn) [compound 424]

logP [1]: 6.61^[a]
SMILES: CCCC(=NOCC(C)CON=C(CCC)c1cccc(C)n1)c1cccc(C)n1 (stereo not drawn) [Compound 112]

logP (method marked [b] in Table 1): 5.49^b] | logP (method marked [c] in Table 1): 7.33^[c]
SMILES: CC(=NOCC1(CON=C(C)c2cccc(C)n2)CCCC1)c1cccc(C)n1 [Compound 587]

logP (method marked [b] in Table 1): 4.49^[b]
SMILES: CCC(CC)(C(=O)ON=C(C)c1cccc(C)n1)C(=O)ON=C(C)c1cccc(C)n1 [compound 745]

logP (value marked [b]): 4.92^[b]
SMILES: COCc1cccc(C(C)=NOCC(C)CON=C(C)c2cccc(COC)n2)n1 (stereo not drawn) [Compound 290]

logP (value marked [b]): 4.44^[b]
SMILES: C=C(CON=C(C)c1cccc(COC)n1)CON=C(C)c1cccc(COC)n1 [compound 291]

logP (value marked [b]): 2.34^[b]
SMILES: CC(=NOCC(C)CON=C(C)c1cccc(C)n1)c1cccnc1 (stereo not drawn) [compound 438]

logP (value marked [a]): 3.21^[a] | logP (value marked [c]): 6.40^[c]
SMILES: CC(=NOCC(C)CON=C(C)c1cc(C2CC2)cc(C)n1)c1cccc(C)n1 (stereo not drawn) [compound 845]

logP (value marked [a]): 4.50^[a]
SMILES: CC(=NOC[Si](C)(C)CON=C(C)c1cccc(C)n1)c1cccc(C)n1 [Compound 292]

logP [1]: 3.67^a]
SMILES: CC(=NOCC(C)CON=C(C)c1ccc(C)cn1)c1ccc(C)cn1 (stereo not drawn) [compound 133]

Further lines, the compound ahead of its results:

SMILES: Cc1nc(/C(N)=N/OCc2cccc(CO/N=C(\N)c3nc(C)c4c(n3)CCCC4)c2)nc2c1CCCC2 [compound 712]
logP (method marked [b] in Table 1): 3.09^[b]

SMILES: CCOC(=O)C(C)(CON=C(C)c1cc(C)cc(C)n1)CON=C(C)c1cc(C)cc(C)n1 (stereo not drawn) [compound 855]
logP (value marked [b]): 2.79^[b] | logP (value marked [c]): 5.72^[c]

SMILES: Cc1cccc(C=NOCc2ccc(CON=Cc3cccc(C)n3)cc2)n1 [compound 735]
logP (method marked [b] in Table 1): 2.80^[b]

SMILES: CC(=NOCc1ccccc1CON=C(C)c1ccccn1)c1ccccn1 [Compound 725]
logP (method marked [b] in Table 1): 3.76^[b]

SMILES: CCCC(=NOCC1(CON=C(CCC)c2cccc(C)n2)CC(c2ccccc2)=NO1)c1cccc(C)n1 (stereo not drawn) [compound 621]
logP (method marked [b] in Table 1): 5.9^[b]

SMILES: Cc1nc(C(N)=NOC/C=C\CON=C(N)c2nc(C)c(Cl)c(C)n2)nc(C)c1Cl [compound 775]
logP (value marked [b]): 2.77^[b]

SMILES: CCCC(=NOCCCCON=C(CCC)c1cccc(C)n1)c1cccc(C)n1 [compound 227]
logP [1]: 6.26^[a]

SMILES: CCC(=NOCC(C)CON=C(CC)c1cc(C)cc(C)n1)c1cc(C)cc(C)n1 (single isomer, unassigned) [compound 691]
logP (method marked [a] in Table 1): 2.75^[a] (isomer A)

SMILES: Cc1cc(C)cc(/C(N)=N/OCc2ccccc2CO/N=C(\N)c2cc(C)cc(C)c2)c1 [compound 710]
logP (method marked [b] in Table 1): 3.68^[b]

SMILES: C=C(CON=C(C#CC)c1cccc(C)n1)CON=C(C#CC)c1cccc(C)n1 [compound 803]
logP (value marked [b]): 3.07^[b]

SMILES: C=C(CON=C(C)c1cccc(-c2ccccc2)n1)CON=C(C)c1cccc(-c2ccccc2)n1 [compound 567]
logP (method marked [b] in Table 1): 7.26 | logP (method marked [c] in Table 1): 7.27

SMILES: CC(=NOC/C=C/CON=C(C)c1nc(C)c(C)s1)c1nc(C)c(C)s1 (single isomer, unassigned) [compound 766]
logP (value marked [b]): 5.08^[b] (isomer A)

SMILES: C=C(CON=C(C)c1cccc(C)n1)CON=C(C)c1nc(C)c(C)s1 [Compound 18]
logP [2]: 4.41^[b]

SMILES: C=C(CON=C(C)c1cccc(C)n1)CON=C(N)c1cc(C)cc(C)n1 [Compound 189]
logP [2]: 2.92^[b]

SMILES: CCOC(=O)C(C)(CON=C(C)c1nc(C)ccc1C)CON=C(C)c1nc(C)ccc1C (stereo not drawn) [compound 860]
logP (value marked [b]): 3.03[b] | logP (value marked [c]): 4.72^[c]

SMILES: Cc1cccc(C(=NOCC(C)(C)CON=C(c2cccc(C)n2)C2CC2)C2CC2)n1 (mixture of isomers) [Compound 281]
logP (value marked [a]): 4.04^[a]

SMILES: CC(=NOCC1(CON=C(C)c2cccc(C)n2)CC(c2ccccc2)=NO1)c1cccc(C)n1 (stereo not drawn) [Compound 593]
logP (method marked [a] in Table 1): 3.74^[a]

SMILES: CC(=NOCC(C)(C)CON=C(C)c1cc(C)cc(C)n1)c1cc(C)cc(C)n1 [Compound 276]
logP (value marked [a]): 2.54^[a]

SMILES: C/C(=N\OCC1(CON)CC1)c1ccc(C)c(C)n1 [XII-8, (1E)-1-(5,6-dimethylpyridin-2-yl)ethanone O-({1-[(aminooxy)methyl]-cyclopropyl}methyl)oxime]
chromatographic logP (HCO2H, HPLC reversed-phase column (C 18), 43° C., read-out: logP (HCO2H)): 0.73 | chromatographic logP ([a] acidic range, pH 2.3, 0.1% aqueous phosphoric acid and acetonitrile, read-out: logP): 0.53 | chromatographic logP ([b] LC-MS, acidic range, pH 2.7, 0.1% aqueous formic acid and acetonitrile, read-out: logP): 0.53 | chromatographic logP ([c] LC-MS, neutral range, pH 7.8, 0.001 molar aqueous ammonium bicarbonate solution and acetonitrile, read-out: logP): 2.44

SMILES: CC(=NOCCCCON=C(C)c1cccc(C)n1)c1ccc2ccccc2c1 [compound 445]
logP (value marked [a]): 5.72^[a]

SMILES: CCOC(=O)C(C)(CON=C(C)c1nc(C)ccc1C)CON=C(C)c1nc(C)ccc1C (stereo not drawn) [compound 884]
logP (value marked [b]): 2.47^[b] | logP (value marked [c]): 3.84^[c]

SMILES: CCCC(=NOCCON=C(CCC)c1cccc(C)n1)c1cccc(C)n1 [compound 226]
logP [1]: 5.18^[a]

SMILES: CC(=NOCCCCCCON=C(C)c1cccnc1C)c1cccc(C)n1 [compound 461]
logP (value marked [b]): 2.27^[b]

SMILES: C=C(CON=C(C)c1cccs1)CON=C(C)c1cccs1 (single isomer, unassigned) [compound 79]
logP [2]: 4,56^[b] (isomer A)

SMILES: CCC(=NOCCCON=C(C)c1cccc(C)n1)c1ncccc1C [compound 156]
logP [2]: 3.28^[b]

SMILES: CC(=NOCCCCCCON=C(C)c1cccc(C)n1)c1ccncc1 [compound 454]
logP (value marked [b]): 2.62^[b]

SMILES: CC(=NOCc1ccccc1CON=C(C)c1nc(C)c(C)s1)c1nc(C)c(C)s1 [compound 730]
logP (method marked [b] in Table 1): 5.71^[b]

SMILES: Cc1cccc(C(CS(C)(=O)=O)=NOCCCON=C(CS(C)(=O)=O)c2cccc(C)n2)n1 [compound 170]
logP [1]: 2.75^[a]

SMILES: Cc1cccc(C(=NOCCCON=C(c2ccccc2)c2cccc(C)n2)c2ccccc2)n1 (mixture of isomers) [compound 656]
logP (method marked [a] in Table 1): 3.68^[a]

SMILES: C/C(=N\OCC(C)(C)CON)c1ccc(C)c(C)n1 [XII-6]
logP ([a] acidic range, pH 2.3, 0.1% aqueous phosphoric acid and acetonitrile): 0.98^[a] | logP ([b] LC-MS, acidic range, pH 2.7, 0.1% aqueous formic acid and acetonitrile): 0.98^[b] | logP ([c] LC-MS, neutral range, pH 7.8, 0.001 molar aqueous ammonium bicarbonate solution and acetonitrile): 2.94^[c]

SMILES: Cc1cccnc1C(Cc1ccccc1)=NOCC(C)CON=C(Cc1ccccc1)c1ncccc1C (single isomer, unassigned) [compound 108]
logP [1]: 5.32^[a] (isomer A)

SMILES: CC(=NOCC(C)CON=C(C)c1ccc(C)o1)c1ccc(C)o1 (mixture of isomers) [compound 585]
logP (method marked [a] in Table 1): 4.70^[a]

SMILES: CC(=NOCCCON=C(C)c1ncc(Cl)cc1Cl)c1ncc(Cl)cc1Cl [compound 56]
logP [2]: 5.78^[b]
